Consider 15 compounds from ChEMBL document CHEMBL1127331, “Pyridobenzoxazepine and pyridobenzothiazepine derivatives as potential central nervous system agents: synthesis and neurochemical study” (J Med Chem, 1994).

In test [1] the target is Serotonin 2 (5-HT2) receptor (Rattus norvegicus, UniProt P30994+P08909+P14842).
Description: Binding affinity against serotonin 5-hydroxytryptamine 2 receptor
The species named for test [2] is Rattus norvegicus. Nature of the test: animal or person. To be noted: sc.
Description: (§1) Inhibitory activity in apomorphine antagonism test at a dose of 20 mg/kg, sc
For test [3], the species on record is Rattus norvegicus. Kind of test: animal or person. As to conditions: sc, read-out: Inhibition.
Description: as §1
Test [4] has as its target Muscarinic acetylcholine receptor.
Description: Binding affinity against muscarinic (M) receptor
The target of another test is D(1A) dopamine receptor (Rattus norvegicus, UniProt P18901).
Chain of D(1A) dopamine receptor (P18901 whole entry): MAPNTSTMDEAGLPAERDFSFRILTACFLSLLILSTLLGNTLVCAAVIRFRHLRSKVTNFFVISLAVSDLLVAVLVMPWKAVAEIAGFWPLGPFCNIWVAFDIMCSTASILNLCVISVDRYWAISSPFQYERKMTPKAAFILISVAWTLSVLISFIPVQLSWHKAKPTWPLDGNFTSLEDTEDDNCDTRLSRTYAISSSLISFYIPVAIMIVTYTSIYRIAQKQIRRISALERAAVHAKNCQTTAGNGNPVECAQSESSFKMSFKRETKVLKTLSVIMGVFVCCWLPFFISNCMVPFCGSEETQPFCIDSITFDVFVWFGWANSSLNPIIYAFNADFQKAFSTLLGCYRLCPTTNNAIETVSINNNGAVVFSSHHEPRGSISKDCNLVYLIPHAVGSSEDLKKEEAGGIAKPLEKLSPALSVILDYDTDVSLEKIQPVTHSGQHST

Description for D(1A) dopamine receptor: Binding affinity against dopamine receptor D1

On to `CN1CCN(C2=Nc3ccccc3Sc3ccc(Cl)cc32)CC1` [CLOTHIAPINE], for which the “-Log Ki” value in test [1] is 9.23. In the test filed under Rattus norvegicus [2], this compound returned a 50% effective dose (ED50) of 0.72 mg/kg. The inhibition in vivo at 20 mg/kg in the test listed under Rattus norvegicus [3] amounted to 100%.
As to `CN1CCN(C2=Nc3cccnc3Oc3ccccc32)CC1`, the “-Log Ki” value is given as 4.65 in test [1] and 6.07 in test [4]. For the same compound, the inhibition in vivo at 20 mg/kg in the test listed under Rattus norvegicus [3] amounted to 0%.
Regarding `CN1CCN(C2=Nc3cccnc3Sc3ccccc32)CC1`, the “-Log Ki” value in test [1] came out at 5.94; in test [4], 6.13. At D(1A) dopamine receptor, this compound had an inhibition constant (Ki) of 8130 nM. Also, the inhibition in vivo at 20 mg/kg in the test listed under Rattus norvegicus [3] was found to be 0%.
Regarding `CN1CCN(C2=Nc3cc(F)ccc3Cc3ccccc32)CC1` [FLUPERLAPINE], in test [1], the “-Log Ki” value turned out to be 8.41.
In the case of `Cc1ccc2c(c1)N=C(N1CCN(C)CC1)c1cccnc1O2`, the “-Log Ki” value in test [1] is 7.01; in test [4], 5.42. For the same compound, the Ki on D(1A) dopamine receptor was 759 nM. Further, the inhibition in vivo at 20 mg/kg in the test listed under Rattus norvegicus [3] was 0%.
On the same counts, the results for `CN1CCN(C2=Nc3cccnc3Oc3ccc(Cl)cc32)CC1` are 7.35, 5.86, 1070 nM and 100%.
On the same counts, the results for `CN1CCN(C2=Nc3cccnc3Sc3ccc(Cl)cc32)CC1` are 7.35, 5.75, 676 nM and 100%.
Consider `CN1CCN(C2=Nc3cc(Cl)ccc3Oc3ncccc32)CC1`, for which the figures for the “-Log Ki” value in test [1] and in test [4] were 7.19 and 5.65, respectively. The compound also showed a Ki on D(1A) dopamine receptor of 302 nM. In addition, the inhibition in vivo at 20 mg/kg in the test filed under Rattus norvegicus [3] was 0%.
Compound `O=C(CCCN1CCC(O)(c2ccc(Cl)cc2)CC1)c1ccc(F)cc1` [HALOPERIDOL] had an ED50 in the test listed under Rattus norvegicus [2] of 0.14 mg/kg. For the same compound, the inhibition in vivo at 20 mg/kg in the test filed under Rattus norvegicus [3] is 100%.
Regarding `CN1CCN(C2=Nc3ccccc3Nc3ccc(Cl)cc32)CC1` [ISOCLOZAPINE], the ED50 in the test listed under Rattus norvegicus [2] turned out to be 1.7 mg/kg.
On to `CN1CCN(C2=Nc3cc(Cl)ccc3Nc3ccccc32)CC1` [CLOZAPINE], for which the inhibition in vivo at 20 mg/kg in the test listed under Rattus norvegicus [3] stood at 0%.
Take `CN1CCN(C2=Nc3ccccc3Sc3ncccc32)CC1`: the “-Log Ki” value in test [1] amounted to 6.29; in test [4], 5.61. Also, the Ki at D(1A) dopamine receptor is 1620 nM. The inhibition in vivo at 20 mg/kg in the test listed under Rattus norvegicus [3] was 0%.
For `CN1CCN(C2=Nc3ccccc3Oc3ncccc32)CC1`, in that order: 5.85, 5.47, 2400 nM and 0%.
On the same counts, the results for `CN1CCN(C2=Nc3cnccc3Sc3ccccc32)CC1` are 6.55, 6.68, 15500 nM and 0%.
As for `CN1CCN(C2=Nc3cc(Cl)ccc3Sc3ccccc32)CC1` [ISOCLOTHIAPINE], in test [1], the “-Log Ki” value was found to be 8.38.
